Laboratory results: article PMC6166229 (Journal of Medicinal Chemistry, 2018)

Columns and labels:
[1] = Microsomal clearance, human liver microsomes; format: in vitro ADME; conditions: both, pH 7.4, Clint human
[2] = Dog blood pharmacokinetics; format: in vivo; conditions: whole blood, iv, 1 mg/kg
MPS1 = target: T1, MPS1 (Homo sapiens, UniProt P33981); format: biochemical; conditions: 2,2-dimethylazetidine 48 compared with neopentyl-like analogue (47)
T1 sequence (P33981 1-857): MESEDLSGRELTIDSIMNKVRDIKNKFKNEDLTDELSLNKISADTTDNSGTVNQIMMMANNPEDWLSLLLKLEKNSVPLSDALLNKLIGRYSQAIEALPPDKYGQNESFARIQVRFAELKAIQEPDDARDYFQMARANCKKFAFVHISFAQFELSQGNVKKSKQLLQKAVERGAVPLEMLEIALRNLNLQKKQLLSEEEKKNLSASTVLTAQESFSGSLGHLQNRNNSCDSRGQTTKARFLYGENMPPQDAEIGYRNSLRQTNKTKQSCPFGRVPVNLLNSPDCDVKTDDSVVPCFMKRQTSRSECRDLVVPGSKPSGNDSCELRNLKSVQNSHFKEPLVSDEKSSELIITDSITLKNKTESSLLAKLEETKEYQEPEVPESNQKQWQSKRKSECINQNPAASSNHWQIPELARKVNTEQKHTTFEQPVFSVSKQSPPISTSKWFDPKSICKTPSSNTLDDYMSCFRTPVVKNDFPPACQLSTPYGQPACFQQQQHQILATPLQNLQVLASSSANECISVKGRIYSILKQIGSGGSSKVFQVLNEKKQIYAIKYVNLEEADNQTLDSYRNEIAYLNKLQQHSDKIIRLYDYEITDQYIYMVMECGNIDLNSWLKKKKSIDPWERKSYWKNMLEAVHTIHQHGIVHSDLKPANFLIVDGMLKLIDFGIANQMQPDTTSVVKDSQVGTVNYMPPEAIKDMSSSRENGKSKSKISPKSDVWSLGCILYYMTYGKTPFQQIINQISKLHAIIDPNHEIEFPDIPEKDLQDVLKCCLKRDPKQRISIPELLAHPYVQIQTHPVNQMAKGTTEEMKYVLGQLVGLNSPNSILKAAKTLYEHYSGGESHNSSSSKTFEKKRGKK

**Q.** Which microsomal CLint at 1 μM [1] does the source give for `COc1cc(-c2cnc(C)n2C)ccc1Nc1ncc2ccnc(NCC(C)(C)C)c2n1` [Compound 16, N^2-(4-(1,2-Dimethyl-1H-imidazol-5-yl)-2-methoxyphenyl)-N^8-neopentylpyrido[3,4-d]pyrimidine-2,8-diamine] here?
**A.** The microsomal CLint at 1 μM was 79 µL/min/mg.

**Q.** With `CCOc1cc(-c2nncn2C)ccc1Nc1ncc2cc(C)nc(NCC(C)(C)C)c2n1` [Compound 36, N^2-(2-Ethoxy-4-(4-methyl-4H-1,2,4-triazol-3-yl)phenyl)-6-methyl-N^8-neopentylpyrido[3,4-d]pyrimidine-2,8-diamine] as the compound, how does the clearance [2] read?
**A.** The clearance was 1.2 mL/min/kg.

**Q.** Which “fold higher IC50” value (MPS1) does the source give for `CCOc1cc(-c2nncn2C)ccc1Nc1ncc2cc(C)nc(N3CCC3(C)C)c2n1` [Compound 48, 8-(2,2-Dimethylazetidin-1-yl)-N-(2-ethoxy-4-(4-methyl-4H-1,2,4-triazol-3-yl)phenyl)-6-methylpyrido[3,4-d]pyrimidin-2-amine] here?
**A.** The value was 40 fold.
